From patent US20190053492A1, “SUBSTITUTED PYRIDINE COMPOUNDS AS PESTICIDES” (Bayer CropScience Aktiengesellschaft, priority 2016, published 2019)
Read-outs that look alike come from different tables or passages of the source.

Tests used:
[1] = log P by HPLC on reversed-phase column (C 18), EEC Directive 79/831 Annex V.A8; format: physicochemical; settings: 55° C.; for LOGP_HCOOH: log P (HCOOH); for chromatographic logP: reversed-phase HPLC column (C 18)
Experimental: Temperature: 55° C. […] Called log P (HCOOH) in the table. […] Called log P (neutral) in the table.

[2] = test system: Spodoptera frugiperda; assay: Spodoptera frugiperda spray test; format: in vivo; settings: after 7 days, maize leaf discs
Procedure, shortened: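 Efficacy in % was scored at 7 days against armyworm caterpillars placed on dried, compound-sprayed Zea mays leaf discs. Compound was dissolved in acetone/dimethylformamide and diluted in water with 1000 ppm alkylaryl polyglycol ether. 100% means all caterpillars were killed.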

[3] = test system: Phaedon cochleariae; assay: Phaedon cochleariae spray test; format: in vivo; settings: after 7 days, Chinese cabbage leaf discs
Experimental: Phaedon cochleariae—Spray Test
Solvent: 78.0 parts by weight of acetone • • 1.5 parts by weight of dimethylformamide
Emulsifier: alkylaryl polyglycol ether
To produce a suitable active ingredient formulation, 1 part by weight of active ingredient is dissolved with the specified parts by weight of solvent and made up with water containing an emulsifier concentration of 1000 ppm until the desired concentration is attained. To produce further test concentrations, the formulation is diluted with emulsifier-containing water.
Discs of Chinese cabbage leaves (Brassica pekinensis) are sprayed with an active ingredient formulation of the desired concentration and, after drying, populated with larvae of the mustard beetle (Phaedon cochleariae).
After 7 days, the efficacy in % is determined. 100% means that all the beetle larvae have been killed; 0% means that no beetle larvae have been killed.

[4] = acidic range at pH 2.7, 0.1% aqueous formic acid and acetonitrile, HPLC on reversed-phase column (C 18)
[5] = log P, neutral range, HPLC on reversed-phase column (C 18)
[6] = acidic range pH 2.7, 0.1% aqueous formic acid and acetonitrile, reversed-phase column (C 18)
[7] = log P (neutral), HPLC reversed-phase column (C 18)

Row | Compound | LOGP_HCOOH [1, 4] | LOGP_NEUTRAL [1, 5] | efficacy (caterpillars killed) ([2]; application rate 100 g/ha) [%] | efficacy (caterpillars killed) ([2]; application rate 500 g/ha) [%] | efficacy (beetle larvae killed) ([3]; application rate 100 g/ha) [%] | efficacy (beetle larvae killed) ([3]; application rate 500 g/ha) [%] | LOGP_HCOOH [1, 6] | chromatographic logP ([1]; pH 2.7, log P (HCOOH), acidic range pH 2.7, 0.1% aqueous formic acid and acetonitrile, reversed-phase column (C 18), read-out: LOGP_HCOOH) | chromatographic logP ([1]; pH 7.8, LC-MS neutral range, pH 7.8, ammonium hydrogencarbonate/acetonitrile, read-out: log P (neutral)) | pest or weed control at 500 g/ha ([2]; Spodoptera frugiperda, foliar, 168 h, application rate 500 g/ha, read-out: efficacy (caterpillars killed)) [%] | pest or weed control at 500 g/ha ([3]; Phaedon cochleariae, foliar, 168 h, application rate 500 g/ha, read-out: efficacy (beetle larvae killed)) [%] | LOGP_NEUTRAL [1, 7]
1 | CC(NC(=O)c1cc(-c2ccc(OC(F)(F)F)cc2)cc(NC(=O)C2CC2)n1)c1ccc(C#N)cc1 (racemic) [Example I-158] | 4.17 | 4.02 | 100 | 100 | 83 | 100 | – | – | – | – | – | –
2 | O=C(NCc1ccccn1)c1cc(-c2ccc(C(F)(F)F)cc2)cc(NC(=O)C2CC2)n1 [Example I-007] | – | 2.75 | – | 83 | – | 100 | 3.19 | – | – | – | – | –
3 | O=C(NCC(F)(F)F)c1cc(-c2ccc(C(F)(F)F)cc2)cc(NC(=O)C2CC2)n1 [Example I-009] | – | 3.77 | – | 100 | – | 100 | 3.82 | – | – | – | – | –
4 | O=C(NCc1ccc(Cl)nc1)c1cc(-c2ccc(C(F)(F)F)cc2)cc(NC(=O)C2CC2)n1 [Example I-011] | – | 3.55 | – | 100 | 100 | 100 | 3.67 | – | – | – | – | –
5 | O=C(NCC1CC1)c1cc(-c2ccc(C(F)(F)F)cc2)cc(NC(=O)C2CC2)n1 [Example I-012] | – | 3.66 | – | 100 | 100 | 100 | 3.78 | – | – | – | – | –
6 | CCNC(=O)c1cc(-c2ccc(C(F)(F)F)cc2)cc(NC(=O)C2CC2)n1 [Example I-016] | – | 3.23 | – | 100 | – | 83 | 3.30 | – | – | – | – | –
7 | CC(C)NC(=O)c1cc(-c2ccc(C(F)(F)F)cc2)cc(NC(=O)C2CC2)n1 [Example I-018] | – | 3.68 | 83 | 100 | – | 100 | 2.65 | – | – | – | – | –
8 | N#Cc1ccc(NC(=O)c2cc(-c3ccc(C(F)(F)F)cc3)cc(NC(=O)C3CC3)n2)cc1 [Example I-019] | – | 4.33 | – | 100 | – | 100 | 4.40 | – | – | – | – | –
9 | N#Cc1ccc(CNC(=O)c2cc(-c3ccc(Cl)cc3)cc(NC(=O)C3CC3)n2)cc1 [Example I-020, 4-(4-Chlorophenyl)-N-(4-cyanobenzyl)-6-[(cyclopropylcarbonyl)amino]pyridine-2-carboxamide] | – | 3.54 | – | – | – | – | – | 3.6 | 3.54 | 100 | 100 | –
10 | N#Cc1ccc(NC(=O)c2cc(-c3ccc(Cl)cc3)cc(NC(=O)C3CC3)n2)cc1 [Example I-022] | – | 4.29 | 100 | 100 | 83 | 100 | 4.34 | – | – | – | – | –
11 | CC(NC(=O)c1cc(-c2ccc(C(F)(F)F)cc2)cc(NC(=O)C2CC2)n1)C1CC1 (stereo not shown) [Example I-031] | – | 4.06 | – | 100 | – | 100 | 4.17 | – | – | – | – | –
12 | O=C(NC1CC1)c1cc(-c2ccc(I)cc2)cc(NC(=O)C2CC2)n1 [Example I-035] | – | 3.39 | – | 100 | – | 100 | 3.48 | – | – | – | – | –
13 | CCCCNC(=O)c1cc(-c2ccc(C(F)(F)F)cc2)cc(NC(=O)C2CC2)n1 [Example I-037] | – | 3.98 | 83 | 100 | – | 83 | 4.05 | – | – | – | – | –
14 | CC(NC(=O)c1cc(-c2ccc(C(F)(F)F)cc2)cc(N(C(=O)C2CC2)C(=O)C2CC2)n1)c1ccc(C#N)cc1 (stereo not shown) [Example I-039] | – | 4.31 | 100 | 100 | 100 | 100 | 4.36 | – | – | – | – | –
15 | N#Cc1ccc(CNC(=O)c2cc(-c3ccc(C(F)(F)F)cc3)cc(NC(=O)C3CC3)n2)cn1 [Example I-042] | – | 3.26 | 83 | 100 | 100 | 100 | 3.36 | – | – | – | – | –
16 | N#Cc1ccc(CNC(=O)c2cc(-c3ccc(C(F)(F)F)cc3)cc(NC(=O)C3CCC3)n2)cc1 [Example I-045] | – | 3.99 | – | 100 | 100 | 83 | 4.14 | – | – | – | – | –
17 | N#Cc1ccc(CNC(=O)c2cc(-c3ccc(C(F)(F)F)cc3)cc(NC(=O)CC3CC3)n2)cc1 [Example I-055] | – | 3.82 | 100 | 100 | – | 100 | 3.92 | – | – | – | – | –
18 | O=C(NCc1ccc(Cl)c(F)c1)c1cc(-c2ccc(C(F)(F)F)cc2)cc(NC(=O)C2CC2)n1 [Example I-056] | – | 4.44 | 100 | 100 | – | 100 | 4.57 | – | – | – | – | –
19 | CC(NC(=O)c1cc(-c2ccc(C(F)(F)F)cc2)cc(NC(=O)C2CC2)n1)c1ccc(C(F)(F)F)cc1 (stereo not shown) [Example I-057] | – | 4.77 | – | 100 | – | 83 | 4.91 | – | – | – | – | –
20 | C[C@H](NC(=O)c1cc(-c2ccc(C(F)(F)F)cc2)cc(NC(=O)C2CC2)n1)c1ccc(C(F)(F)F)cc1 [Example I-060] | – | 4.82 | 83 | 100 | – | 100 | 4.89 | – | – | – | – | –
21 | C[C@H](NC(=O)c1cc(-c2ccc(OC(F)(F)F)cc2)cc(NC(=O)C2CC2)n1)c1ccc(C(F)(F)F)cc1 [Example I-061] | – | 4.89 | 100 | 100 | – | 100 | 5.01 | – | – | – | – | –
22 | N#Cc1ccc(CNC(=O)c2cc(-c3ccc(OC(F)(F)F)c(Cl)c3)cc(NC(=O)C3CC3)n2)cc1 [Example I-230] | 4.32 | 4.24 | – | – | 83 | – | – | – | – | – | – | –
23 | CONC(=O)c1cc(-c2ccc(OC(F)(F)F)cc2)cc(NC(=O)C2CC2)n1 [Example I-234] | – | – | – | – | – | 100 | 2.97 | – | – | – | – | 2.89
24 | O=C(NOCC1CC1)c1cc(-c2ccc(OC(F)(F)F)cc2)cc(NC(=O)C2CC2)n1 [Example I-236] | – | – | – | – | – | 100 | 3.59 | – | – | – | – | 3.50
25 | N#CCCCONC(=O)c1cc(-c2ccc(OC(F)(F)F)cc2)cc(NC(=O)C2CC2)n1 [Example I-238] | – | – | – | – | – | 83 | 3.13 | – | – | – | – | –
26 | N#Cc1ccc(CNC(=O)c2cc(-c3ccc(C(F)(F)C(F)(F)F)c(F)c3F)cc(NC(=O)C3CC3)n2)cc1 [Example I-272] | – | – | – | – | – | 83 | 4.17 | – | – | – | – | –
